Each structure is given as a SMILES string.

The target in this experiment is T1, JAK3 (JH1 and JH2 domain) (Homo sapiens, UniProt P52333).
T1 sequence (P52333 521-1111 limits assumed): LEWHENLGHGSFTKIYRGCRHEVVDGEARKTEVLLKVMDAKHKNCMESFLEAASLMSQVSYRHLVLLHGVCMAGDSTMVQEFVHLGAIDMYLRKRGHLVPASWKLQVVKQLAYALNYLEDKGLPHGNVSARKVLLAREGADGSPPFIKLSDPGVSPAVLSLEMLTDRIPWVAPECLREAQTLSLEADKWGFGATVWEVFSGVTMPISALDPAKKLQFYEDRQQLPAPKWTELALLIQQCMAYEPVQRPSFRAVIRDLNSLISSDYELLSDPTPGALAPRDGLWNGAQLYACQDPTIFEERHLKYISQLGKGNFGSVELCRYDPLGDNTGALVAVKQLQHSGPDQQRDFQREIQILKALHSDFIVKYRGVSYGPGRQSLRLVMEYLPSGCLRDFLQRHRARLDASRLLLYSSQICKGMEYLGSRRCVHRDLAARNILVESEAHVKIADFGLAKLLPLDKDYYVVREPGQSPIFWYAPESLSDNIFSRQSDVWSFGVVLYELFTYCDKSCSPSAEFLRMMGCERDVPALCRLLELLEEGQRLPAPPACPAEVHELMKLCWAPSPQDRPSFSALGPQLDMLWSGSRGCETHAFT
Nature of the experiment: JAK3 Kinase Assay (ELISA of peptide substrate phosphorylation). The class given is biochemical. The conditions noted are these: purified JAK3 enzyme, 10 μM ATP, biotinylated peptide substrate, 1 hour at room temperature. In a few lines: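 Sf21-baculovirus-expressed JAK3 (JH1+JH2), glutathione-bead purified, with biotinylated peptide substrate (in buffer containing 10 μM ATP) in HEPES pH 7.5/MgCl2/DTT, 1 h RT. Product was captured on Neutravidin, detected with HRP anti-phosphotyrosine (PY99)/TMB, OD 450/650 nm. Triplicate 16-point half-log series from 200 μM gave IC50; otherwise % inhibition at 1 μM.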
As to `O=C1NC(=O)c2c1c1c3ccccc3n3c1c1c2c2ccccc2n1CC(OC(=O)N1CCN(c2ccccn2)CC1)CC3` (centres unmarked) [Cpd 63, 12,13-{2-[(4-pyridin-2-yl-piperazin-1-yl)carbonyloxy]-butan-1,4-yl}-12,13-dihydro-5,7-dioxo-6H-indolo[2,3-a]pyrrolo[3,4-c]carbazole], the IC50 is 129 nM.

For the compound `CC(C)NC(=O)OCC1(O)Cn2c3ccccc3c3c4c(c5c6ccccc6n(c5c32)C1)C(=O)NC4` (centres unmarked) [Cpd 135, 12,13-[2-hydroxy-2-(isopropyl-carbamoyloxymethyl)-propan-1,3-yl]-6,7,12,13-tetrahydro-5-oxo-5H-indolo[2,3-a]pyrrolo[3,4-c]carbazole], the IC50 is greater than 200 nM.

Regarding `O=C1NC(=O)c2c1c1c3ccccc3n3c1c1c2c2ccccc2n1CC(O)(C(=O)N1CCN(CCN2CCOCC2)CC1)C(O)C3` (centres unmarked) [Cpd 134, 12,13-(2-{[4-(2-morpholin-4-yl-ethyl)piperazin-1-yl]carbonyl}-2,3-dihydroxy-butan-1,4-yl)-12,13-dihydro-5,7-dioxo-6H-indolo[2,3-a]pyrrolo[3,4-c]carbazole], the 50% inhibitory concentration (IC50) was 53 nM.

As for `CN(C)CC(=O)OC1Cn2c3ccccc3c3c4c(c5c6ccccc6n(c5c32)CC1OC(=O)CN(C)C)C(=O)NC4` (centres unmarked) [Cpd 15, 12,13-{2,3-bis-[(dimethylaminomethyl)carbonyloxy]-butan-1,4-yl}-6,7,12,13-tetrahydro-5-oxo-5H-indolo[2,3-a]pyrrolo[3,4-c]carbazole], the IC50 stood at 653 nM.

Take `COc1ccc(CCNC(=O)OC2CCn3c4ccccc4c4c5c(c6c7ccccc7n(c6c43)C2)C(=O)NC5=O)cc1OC` (centres unmarked) [Cpd 49, 12,13-(2-{[2-(3,4-dimethoxy-phenyl)ethyl]carbamoyloxy}-butan-1,4-yl)-12,13-dihydro-5,7-dioxo-6H-indolo[2,3-a]pyrrolo[3,4-c]carbazole]: the concentration for half-maximal inhibition (IC50) was determined as 39 nM.

`O=C1NCc2c1c1c3ccccc3n3c1c1c2c2ccccc2n1CC(COC(=O)N1CCN(c2ccc(O)cc2)CC1)C3` (centres unmarked) [Cpd 158, 12,13-(2-{[4-(4-hydroxy-phenyl)piperazin-1-yl]carbonyloxymethyl}-propan-1,3-yl)-6,7,12,13-tetrahydro-5-oxo-5H-indolo[2,3-a]pyrrolo[3,4-c]carbazole]: the IC50 was determined as 123 nM.

In the case of `O=C1NC(=O)c2c1c1c3ccccc3n3c1c1c2c2ccccc2n1CC(O)(C(=O)NC(CO)CO)C(O)C3` (centres unmarked) [Cpd 118, 12,13-{2-[(1,3-hydroxy-isopropyl)carbamoyl]-2,3-dihydroxy-butan-1,4-yl}-12,13-dihydro-5,7-dioxo-6H-indolo[2,3-a]pyrrolo[3,4-c]carbazole], the IC50 amounted to 36 nM.

For the compound `COc1ccccc1CNC(=O)OC1Cn2c3ccccc3c3c4c(c5c6ccccc6n(c5c32)CC1O)C(=O)NC4=O` (centres unmarked) [Cpd 78, 12,13-{2-[(2-methoxy-benzyl)carbamoyloxy]-3-hydroxy-butan-1,4-yl}-12,13-dihydro-5,7-dioxo-6H-indolo[2,3-a]pyrrolo[3,4-c]carbazole], the IC50 worked out at 179 nM.

With `COc1ccccc1N1CCN(C(=O)OC2CCn3c4ccccc4c4c5c(c6c7ccccc7n(c6c43)C2)C(=O)NC5=O)CC1` (centres unmarked) [Cpd 70, 12,13-(2-{[4-(2-methoxy-phenyl)piperazin-1-yl]carbonyloxy}-butan-1,4-yl)-12,13-dihydro-5,7-dioxo-6H-indolo[2,3-a]pyrrolo[3,4-c]carbazole], the IC50 is 71 nM.

In the case of `CN1CCC(Nc2ccc3c(c2)c2c4c(c5c6ccccc6n6c5c2n3CC(O)C(O)C6)CNC4=O)CC1` (centres unmarked) [Cpd 204, 3-[(1-methyl-piperidin-4-yl)amino]-12,13-(2,3-dihydroxy-butan-1,4-yl)-6,7,12,13-tetrahydro-5-oxo-5H-indolo[2,3-a]pyrrolo[3,4-c]carbazole], the IC50 came to 169 nM.

On to `O=C1NC(=O)c2c1c1c3ccccc3n3c1c1c2c2ccccc2n1CC(OC(=O)N1CCN(C(=O)CN2CCCC2)CC1)C(O)C3` (centres unmarked) [Cpd 95, 12,13-[2-({4-[(pyrrolidin-1-yl-methyl)carbonyl]piperazin-1-yl}carbonyloxy)-3-hydroxy-butan-1,4-yl]-12,13-dihydro-5,7-dioxo-6H-indolo[2,3-a]pyrrolo[3,4-c]carbazole], for which the IC50 came to 159 nM.

(Values after patent publication US20070249590A1, “Substituted indolo[2,3-a]pyrrolo[3,4-c]carbazole compounds useful in treating kinase disorders” (priority 2005, published 2007).)
